Strand notation (5' to 3'): a small letter for the sugar, then the base; units joined by * are phosphorothioate-linked, units joined directly phosphodiester-linked; [ ] holds rarer units or linkages, { } end groups; capitals alone tell only the bases. e = 2'-O-(2-methoxyethyl) (MOE); [5mC] = 5-methylcytosine; d = 2'-deoxy (DNA)
Tests used:
Assay type in all cases: cell-based
human Factor 11 mRNA [1] = test: Dose-dependent inhibition of human Factor 11 in HepG2 cells, electroporation 0.7-20 uM (Example 4); conditions: for percent inhibition of Factor 11 at 0.7 μM / percent inhibition of Factor 11 at 2.2 μM / percent inhibition of Factor 11 at 6.7 μM / percent inhibition of Factor 11 at 20 μM: relative to untreated control cells
Description: (§1) The gapmers were also transfected via electroporation and their dose dependent inhibition of human Factor 11 mRNA was measured. Cells were plated at a density of 20,000 cells per well and transfected via electroporation with 0.7 μM, 2.2 μM, 6.7 μM, and 20 μM concentrations of antisense oligonucleotide, as specified in Table 10. After a treatment period of approximately 16 hours, RNA was isolated from the cells and Factor 11 mRNA levels were measured by quantitative real-time PCR. Human Factor 11 primer probe set RTS 2966 was used to measure mRNA levels. Factor 11 mRNA levels were adjusted according to total RNA content, as measured by RIBOGREEN. Results are presented as percent inhibition of Factor 11, relative to untreated control cells.

human Factor 11 mRNA [2] = test: Dose-dependent inhibition of human Factor 11 in HepG2 cells, lipofectin 9.375-75 nM (Example 4); conditions: for percent inhibition of Factor 11 at 9.375 nM / percent inhibition of Factor 11 at 18.75 nM / percent inhibition of Factor 11 at 37.5 nM / percent inhibition of Factor 11 at 75 nM: relative to untreated control cells
Description: as §1, with “Cells” for “The gapmers were also transfected via electroporation and their dose dependent inhibition of human Factor 11 mRNA was measured. Cells”, “10,000” for “20,000”, “using lipofectin reagent” for “via electroporation”, “9.375 nM, 18.75 nM, 37.5 nM” for “0.7 μM, 2.2 μM, 6.7 μM,”, “75 nM” for “20 μM”, “9.” for “10.”

human Factor 11 mRNA [3] = test: Antisense inhibition of human Factor 11 in HepG2 cells by microwalk gapmers, lipofectin, 75 nM (Example 3)
Procedure, shortened: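 HepG2 cells (10,000/well) were transfected via lipofectin with 75 nM 20-mer MOE gapmers (phosphorothioate, 5-methyl-C) for about 24 h. Factor 11 mRNA was measured by qRT-PCR, normalized to RIBOGREEN total RNA, and given as percent inhibition versus untreated cells.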

[4] = HepG2 cells, lipofectin, gapmers targeted to nucleobases 1275 to 1318 of SEQ ID NO: 1
[5] = HepG2, lipofectin, ~24 h, gapmers targeted to nucleobases 656 to 704 of SEQ ID NO: 1

Row | Substance | IC50 (human Factor 11 mRNA [1]) | percent inhibition of Factor 11 at 0.7 μM (human Factor 11 mRNA [1]) | percent inhibition of Factor 11 at 2.2 μM (human Factor 11 mRNA [1]) | percent inhibition of Factor 11 at 6.7 μM (human Factor 11 mRNA [1]) | percent inhibition of Factor 11 at 20 μM (human Factor 11 mRNA [1]) | IC50 (human Factor 11 mRNA [2]) | percent inhibition of Factor 11 at 9.375 nM (human Factor 11 mRNA [2]) | percent inhibition of Factor 11 at 18.75 nM (human Factor 11 mRNA [2]) | percent inhibition of Factor 11 at 37.5 nM (human Factor 11 mRNA [2]) | percent inhibition of Factor 11 at 75 nM (human Factor 11 mRNA [2]) | % inhibition (human Factor 11 mRNA [3]; [4]) | % inhibition (human Factor 11 mRNA [3]; [5])
1 | 416923 (antisense eT*eG*e[5mC]*dA*d[5mC]*dA*dG*dT*dT*dT*d[5mC]*dT*dG*dG*d[5mC]*dA*dG*eG*e[5mC]*e[5mC]) [compound 416923] | 4000 nM | 15% | 30% | 60% | 90% | 23 nM | 36% | 47% | 60% | 67% | 96% | 
2 | 416924 (antisense eG*eT*eG*d[5mC]*dA*d[5mC]*dA*dG*dT*dT*dT*d[5mC]*dT*dG*dG*d[5mC]*dA*eG*eG*e[5mC]) [compound 416924] | 4100 nM | 22% | 40% | 63% | 70% | 36 nM | 25% | 38% | 56% | 59% | 96% | 
3 | 416926 (antisense eT*eG*eG*dT*dG*d[5mC]*dA*d[5mC]*dA*dG*dT*dT*dT*d[5mC]*dT*dG*dG*e[5mC]*eA*eG) [compound 416926] | 600 nM | 47% | 71% | 91% | 94% | 22 nM | 31% | 43% | 63% | 82% | 93% | 
4 | 416931 (antisense eG*eG*e[5mC]*dA*dT*dT*dG*dG*dT*dG*d[5mC]*dA*d[5mC]*dA*dG*dT*dT*eT*e[5mC]*eT) [compound 416931] | 5100 nM | 7% | 24% | 60% | 82% | 22 nM | 44% | 39% | 57% | 71% | 96% | 
5 | 416941 (antisense eG*eG*e[5mC]*dA*dG*d[5mC]*dG*dG*dA*d[5mC]*dG*dG*d[5mC]*dA*dT*dT*dG*eG*eT*eG) [compound 416941] | 3000 nM | 16% | 38% | 79% | 89% | 19 nM | 33% | 54% | 63% | 78% | 95% | 
6 | 416945 (antisense eA*eA*dT*dG*dT*d[5mC]*dT*dT*dT*dG*dT*dT*dG*d[5mC]*dA*eA*eG*e[5mC]*eG*e[5mC]) [compound 416945] | 600 nM | 48% | 70% | 81% | 88% | 24 nM | 34% | 45% | 62% | 65% |  | 94%
7 | 416969 (antisense eG*e[5mC]*d[5mC]*d[5mC]*dT*dT*d[5mC]*dA*dT*dG*dT*d[5mC]*dT*dA*dG*eG*eT*e[5mC]*e[5mC]*eA) [compound 416969] | 2500 nM | 25% | 34% | 86% | 92% | 28 nM | 17% | 39% | 61% | 76% |  | 80%

From patent US20230263822A1, “MODULATION OF FACTOR 11 EXPRESSION” (Ionis Pharmaceuticals, Inc., priority 2008, published 2023)
